Test results published in patent US6703424B2, “Dispersible compositions containing L-DOPA ethyl ester” (Teva Pharmaceutical Industries, Ltgd., priority 1998, dated 2004).

Legend:
Type in all cases: physicochemical
[1] = Dissolution test for L-DOPA ethyl ester/carbidopa dispersible tablets in water (USP dissolution apparatus, HPLC-UV); conditions: 100 ml purified water, room temperature, paddles 200 rpm
Protocol: The dissolution of L-DOPA ethyl ester and carbidopa dispersible tablets was measured in water at room temperature according to the following methodology which was designed to simulate the administration of these tablets to patients. The recommended use is to place a tablet (384 mg) for a few seconds in about 100 mls of water, and to dissolve while swirling or stirring. The suspension should be drunk within 30 minutes. In order to automate the measurement, a USP 6-Pot Dissolution Apparatus is used. Each of 6 tablets are dissolved in 100 ml of purified water in a 200 ml vessel at room temperature (23±2° C.). This is the minimum volume which may be used with the USP Dissolution Apparatus. The solutions are stirred with paddles rotating at 200 rpm, which simulates the turbulence caused when the solution is stirred in a cup, with a teaspoon. […] In this experiment specifically, the amount of L-DOPA ethyl ester or carbidopa is determined by using a 10 cm C18 column, based on 3 μ-diameter spherical silica particles with 100 Å pore size. The elution solvents comprise a gradient of acetonitrile and phosphate buffer with ion-pairing reagent (at pH 2.7). The detection technique is ultraviolet absorption at 280 nm, the wavelength of maximum absorption for both L-DOPA ethyl ester and Carbidopa.

[2] = Stability of L-DOPA ethyl ester composition on incubation at 40° C.; conditions: after incubation for 6 months at 40° C.
[3] = L-DOPA ethyl ester degradation in solution and tablets, measured as level of L-DOPA over six months; conditions: oral solution acidified with HCl
Protocol: A comparison of L-DOPA ethyl ester (LDEE) degradation in LDEE oral solution (4° C.), and in two environmental conditions of LDEE and Carbidopa dispersible tablets (at 25° C./60% RH and at 40° C./75% RH), was performed by measuring the change in levels of L-DOPA in samples over a six month period of time. L-DOPA is the main degradation product of L-DOPA ethyl ester. Elevation in the level of L-DOPA indicates degradation of LDEE.
The change in the level of L-DOPA with time, expressed as percent of the concentration of LDEE in the sample, was determined in LDEE and Carbidopa Dispersible Tablets (Formulation V, packed in aluminum blisters) and in LDEE oral solution (packed in PET bottles). The composition of the solution was (per 1 ml): 57.1 mg LDEE, 1.2 mg Methylparaben, 1.6 mg Saccharin sodium, 0.1 mg Edetate disodium and cherry flavor. The solution was acidified with HCl to pH 4.0, in which the stability of LDEE is maximal. The solution was kept in refrigeration (4° C.) while the tablets were kept at room conditions (25° C. and 60% relative humidity) or in accelerated stability conditions (40° C. and 75% relative humidity). The results are shown below in Table 4 and in FIG. 4: […]

Row | SMILES | Percentage of Dissolution ([1]; 1 minute) | Percentage of Dissolution ([1]; 2 minutes) | Percentage of Dissolution ([1]; 5 minutes) | L-DOPA ethyl ester content remaining [2] | pH at which the stability of LDEE is maximal [3]
1 | C[C@@](Cc1ccc(O)c(O)c1)(NN)C(=O)O [Carbidopa, reference compound] | 64.3% | 87.6% | 101.4% |  | 
2 | CCOC(=O)[C@@H](N)Cc1ccc(O)c(O)c1 [L-DOPA Ethyl Ester, L-DOPA ethyl ester] | 67.2% | 90.1% | 102.7% | at least 97 % by weight of the active ingredient | 4.0
